Reference: publication PMC8693655, “Functional Characterization of BrF3'H, Which Determines the Typical Flavonoid Profile of Purple Chinese Cabbage” (Frontiers in Plant Science, 2021)
Like-named read-outs stand apart in the source and are kept apart here. Blank lines part the entries; values can stand above or below the compound they belong to.

Target: T1, BrF3′H (BrF3′H-8267) (Brassica rapa, UniProt M4CYL5)
T1 construct: full-length ORF, 511 residues, C-terminal V5 and 6xHis tags (pYES-DEST52); yeast WAT11 microsomes with Arabidopsis reductase ATR1 as redox partner
Assay: HPLC of […]'-hydroxylation by yeast microsomes
Assay type: biochemical
Details: 1 mM NADPH, 100 mM Tris-Cl pH 7.5, 30°C, 20 min, 10 μg microsomal protein, Arabidopsis ATR1 reductase

T1 sequence (M4CYL5 entry or part of it): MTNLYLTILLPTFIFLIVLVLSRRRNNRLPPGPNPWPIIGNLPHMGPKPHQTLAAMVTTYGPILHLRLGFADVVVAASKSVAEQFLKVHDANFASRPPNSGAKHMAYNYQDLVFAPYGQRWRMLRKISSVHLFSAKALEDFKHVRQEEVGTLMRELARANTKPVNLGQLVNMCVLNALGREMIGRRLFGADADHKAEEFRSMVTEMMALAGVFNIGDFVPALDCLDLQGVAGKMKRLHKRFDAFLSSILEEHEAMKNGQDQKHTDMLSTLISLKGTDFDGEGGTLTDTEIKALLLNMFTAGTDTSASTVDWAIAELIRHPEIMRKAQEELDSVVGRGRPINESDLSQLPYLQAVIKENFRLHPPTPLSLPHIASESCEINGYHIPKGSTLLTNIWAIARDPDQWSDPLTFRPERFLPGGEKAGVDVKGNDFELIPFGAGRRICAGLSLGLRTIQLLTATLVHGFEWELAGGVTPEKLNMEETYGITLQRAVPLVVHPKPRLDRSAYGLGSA

Km (read-out: Substrates / DHK): 3600 µM
Compound: O=C1c2c(O)cc(O)cc2OC(c2ccc(O)cc2)C1O (racemic) [DHK, dihydrokaempferol]

Km (read-out: Substrates / Nar): 1720 ± 152 µM
Compound: O=C1CC(c2ccc(O)cc2)Oc2cc(O)cc(O)c21 (racemic) [Nar, naringenin]

Km (read-out: Substrates / K): 942 ± 65 µM
Compound: O=c1c(O)c(-c2ccc(O)cc2)oc2cc(O)cc(O)c12 [K, kaempferol]
